Measured values as given in US8828995B2, “Branched oxathiazine derivatives, method for the production thereof, use thereof as medicine and drug containing said derivatives and use thereof” (Sanofi, priority 2011, dated 2014).

Each compound was assayed against human 11β-HSD1 microsome fraction (Homo sapiens, UniProt P28845) (assay: Enzymatic 11beta-HSD1 test (SPA-based detection)). Conditions: IC50 (nM), Biological activity, [1,2-3H]-cortisone, 0.25 mM NADPH, 37° C. for 1 hour.
human 11β-HSD1 microsome fraction, sequence (P28845 whole entry): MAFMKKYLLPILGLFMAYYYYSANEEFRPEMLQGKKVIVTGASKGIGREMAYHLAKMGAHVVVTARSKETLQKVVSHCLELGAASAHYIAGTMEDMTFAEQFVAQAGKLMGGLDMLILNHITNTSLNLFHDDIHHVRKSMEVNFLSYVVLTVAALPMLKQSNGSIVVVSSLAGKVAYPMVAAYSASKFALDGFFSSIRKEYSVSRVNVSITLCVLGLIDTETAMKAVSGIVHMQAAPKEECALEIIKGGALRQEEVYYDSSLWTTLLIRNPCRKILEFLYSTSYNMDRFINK
Experimental: Enzymatic 11beta-HSD1 test:
Protein and radioactive substrate were dispensed with a Biomek FX unit (Beckman Coulter) for handling liquids. The test compounds were added with a Cybi-Well equipped with a 90 nl pin tool (CyBio).

Structure (SMILES) | IC50
O=S1(=O)N=C(N[C@@H](CCO)c2ccc(F)cc2)OC2CCCCC21 (single isomer, unassigned) [Example 19] | 11 nM
O=S1(=O)N=C(N[C@@H](CCO)c2ccc(F)cc2)OC2CCCCC21 (single isomer, unassigned) [Example 20] | 13 nM
O=S1(=O)N=C(N[C@@H](CCO)c2ccccc2)OC2CCOCC21 (single isomer, unassigned) [Example 26] | 742 nM
O=S1(=O)N=C(N[C@@H](CCO)c2ccccc2)OC2CCOCC21 (single isomer, unassigned) [Example 27] | 62 nM
CC12CCCCC1(C)S(=O)(=O)N=C(N[C@@H](CCO)c1ccccc1)O2 (single isomer, unassigned) [Example 31] | 34 nM
CC12CCCCC1(C)S(=O)(=O)N=C(N[C@@H](CCO)c1ccccc1)O2 (single isomer, unassigned) [Example 32] | 4 nM
CC12CCCCC1(C)S(=O)(=O)N=C(N[C@@H](CCO)c1cccnc1)O2 (single isomer, unassigned) [Example 33] | 9 nM
CC12CCCCC1(C)S(=O)(=O)N=C(N[C@@H](CCO)c1cccnc1)O2 (single isomer, unassigned) [Example 34] | 353 nM
O=S1(=O)N=C(N[C@@H](CO)Cc2ccccc2)OC2CCCCC21 (stereo partly drawn) [Example 2, (R)-2-(−1,1-Dioxo-4a,5,6,7,8,8a-hexahydro-1H-1lambda6-benzo[1,4,3]oxathiazin-3-ylamino)-3-phenyl-propan-1-ol] | 575 nM
O=S1(=O)N=C(N[C@H](CO)Cc2ccccc2)OC2CCCCC21 (stereo partly drawn) [Example 3, (S)-2-(−1,1-Dioxo-4a,5,6,7,8,8a-hexahydro-1H-1lambda6-benzo[1,4,3]oxathiazin-3-ylamino)-3-phenyl-propan-1-ol] | 24 nM
O=S1(=O)N=C(N[C@@H](CCO)c2ccc(F)cc2)OC2CCCCC21 (stereo partly drawn) [Example 9, (S)-3-(−1,1-Dioxo-4a,5,6,7,8,8a-hexahydro-1H-1lambda6-benzo[1,4,3]oxathiazin-3-ylamino)-3-(4-fluoro-phenyl)-propan-1-ol] | 5 nM
O=S1(=O)N=C(N[C@@H](CCO)c2cccc(F)c2)OC2CCCCC21 (stereo partly drawn) [Example 10, (S)-3-(−1,1-Dioxo-4a,5,6,7,8,8a-hexahydro-1H-1lambda6-benzo[1,4,3]oxathiazin-3-ylamino)-3-(3-fluoro-phenyl)-propan-1-ol] | 104 nM
O=S1(=O)N=C(N[C@@H](CCO)c2cccc(F)c2)OC2CCCCC21 (stereo partly drawn) [Example 17, (S)-3-(−1,1-Dioxo-4a,5,6,7,8,8a-hexahydro-1H-1lambda6-benzo[1,4,3]oxathiazin-3-ylamino)-3-(3-fluoro-phenyl)-propan-1-ol] | 27 nM
O=S1(=O)N=C(N[C@@H](CCO)c2ccc(F)cc2)OC2CCCCC21 (stereo partly drawn) [Example 18, (S)-3-(−1,1-Dioxo-4a,5,6,7,8,8a-hexahydro-1H-1lambda6-benzo[1,4,3]oxathiazin-3-ylamino)-3-(4-fluoro-phenyl)-propan-1-ol] | 4 nM
O=S1(=O)N=C(N[C@@H](CCO)c2cccnc2)O[C@H]2CCCC[C@H]21 [Example 25, (S)-3-((4aS,8aR)-1,1-Dioxo-4a,5,6,7,8,8a-hexahydro-1H-1lambda6-benzo[1,4,3]oxathiazin-3-ylamino)-3-pyridin-3-yl-propan-1-ol] | 25 nM
O=S1(=O)N=C(N[C@@H](CCO)c2ccccc2)OC2CCC(F)(F)CC21 (stereo partly drawn) [Example 28, (S)-3-(7,7-Difluoro-1,1-dioxo-4a,5,6,7,8,8a-hexahydro-1H-1lambda6-benzo[1,4,3]oxathiazin-3-ylamino)-3-phenyl-propan-1-ol] | 445 nM
NS(=O)(=O)CC(NC1=NS(=O)(=O)[C@@H]2CCCC[C@@H]2O1)c1ccccc1 (stereo partly drawn) [Example 29, 2-((4aS,8aR)-1,1-Dioxo-4a,5,6,7,8,8a-hexahydro-1H-1lambda6-benzo[1,4,3]oxathiazin-3-ylamino)-2-phenyl-ethanesulfonamide] | 15 nM
NS(=O)(=O)CC(NC1=NS(=O)(=O)[C@@H]2CCCC[C@@H]2O1)c1ccccc1 (stereo partly drawn) [Example 30, 2-((4aS,8aR)-1,1-Dioxo-4a,5,6,7,8,8a-hexahydro-1H-1lambda6-benzo[1,4,3]oxathiazin-3-ylamino)-2-phenyl-ethanesulfonamide] | 11 nM
